For 18 compounds, IC50 results are on record in patent publication US12371428B2 (Exelixis, Inc., priority 2019, dated 2025).

Type in all cases: cell-based
Test [1] has as its target AXL (phospho-AXL, Gas6-stimulated A-172 glioblastoma cells) (Homo sapiens (Human), UniProt P30530). The test is described as follows: AXL autophosphorylation ELISA in A-172 cells (Example E). In short, it runs like this: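 Phospho-AXL was measured by ELISA in lysates of Gas6-stimulated A-172 cells, starved 24 h in serum-free medium and exposed 1 h to an 8-point compound dilution at 0.3% DMSO.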
Background: In an ELISA, binding on a coated surface is turned into a signal by an enzyme label.

The target in test [2] is Mer (phospho-Mer, MERTK-transfected 293A cells) (Homo sapiens (Human), UniProt Q12866). The test is described as follows: Mer autophosphorylation ELISA in transient transfected 293A cells (Example H). The conditions noted are these: cellular activity; Mer autophosphorylation ELISA in transient transfected 293A cells. In short, it runs like this: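 IC50 from phospho-Mer ELISA of MERTK-transfected 293A cell lysates after 1 h treatment with serially diluted compound in serum-free medium.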

Test [3] concerns the target Met (phospho-Met, HGF-stimulated PC-3 prostate cancer cells) (Homo sapiens (Human), UniProt P08581). Description: Met autophosphorylation ELISA in PC-3 cells (Example F). Conditions: cellular activity; Met autophosphorylation ELISA in PC-3 cells; read-out: c-Met IC50. In short, it runs like this: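 Serum-starved (3 h) PC-3 cells were treated 1 h with compounds (8-point curve, 0.3% DMSO), then stimulated with 100 ng/mL human HGF for 10 min. Lysate phospho-Met (panTyr) was measured by sandwich ELISA, normalised to DMSO and reference-inhibitor controls. IC50 came from 4-parameter logistic fit.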

For test [4], the target named is KDR (phospho-KDR, VEGF165-stimulated HUVEC cells) (Homo sapiens (Human), UniProt P35968). Description: KDR autophosphorylation ELISA in HUVEC cells (Example G). The conditions noted are these: cellular activity; KDR autophosphorylation ELISA in HUVEC cells. In short, it runs like this:
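First, endothelial cells were cultured a day, then kept without serum for another day. Next came 1 h with serially diluted compound, a brief 5 min VEGF165 stimulus (100 ng/mL), rapid lysis, and ELISA detection of receptor phosphorylation relative to stimulated and non-stimulated controls.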

Setting [5] is: cellular activity, AXL autophosphorylation ELISA in A-172 cells, read-out: Axl IC50.

Read-outs that look alike come from different tables or passages of the source.

Chain of AXL (phospho-AXL, Gas6-stimulated A-172 glioblastoma cells) (P30530 26-894): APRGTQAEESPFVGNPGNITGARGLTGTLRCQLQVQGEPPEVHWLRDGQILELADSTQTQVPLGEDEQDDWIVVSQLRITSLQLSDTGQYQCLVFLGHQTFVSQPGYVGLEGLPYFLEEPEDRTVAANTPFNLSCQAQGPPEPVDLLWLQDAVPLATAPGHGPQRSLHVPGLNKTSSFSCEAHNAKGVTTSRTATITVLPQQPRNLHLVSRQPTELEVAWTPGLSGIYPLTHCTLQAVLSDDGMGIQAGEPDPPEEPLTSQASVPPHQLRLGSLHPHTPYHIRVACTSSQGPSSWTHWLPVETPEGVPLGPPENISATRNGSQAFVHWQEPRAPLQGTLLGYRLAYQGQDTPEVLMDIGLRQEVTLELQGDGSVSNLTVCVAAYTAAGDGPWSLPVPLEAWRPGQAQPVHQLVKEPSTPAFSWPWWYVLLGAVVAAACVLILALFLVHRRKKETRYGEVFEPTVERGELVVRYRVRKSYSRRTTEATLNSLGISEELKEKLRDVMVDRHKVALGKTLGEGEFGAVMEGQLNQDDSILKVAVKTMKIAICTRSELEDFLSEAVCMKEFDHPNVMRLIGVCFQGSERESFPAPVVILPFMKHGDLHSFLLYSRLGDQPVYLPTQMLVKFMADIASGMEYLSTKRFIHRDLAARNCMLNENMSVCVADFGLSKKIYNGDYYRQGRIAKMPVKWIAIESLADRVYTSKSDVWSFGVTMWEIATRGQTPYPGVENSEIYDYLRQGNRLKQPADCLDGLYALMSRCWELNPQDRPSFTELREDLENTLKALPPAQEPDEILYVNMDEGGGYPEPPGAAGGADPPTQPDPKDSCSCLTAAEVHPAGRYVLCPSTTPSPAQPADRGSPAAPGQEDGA
Chain of Met (phospho-Met, HGF-stimulated PC-3 prostate cancer cells) (P08581 25-1390): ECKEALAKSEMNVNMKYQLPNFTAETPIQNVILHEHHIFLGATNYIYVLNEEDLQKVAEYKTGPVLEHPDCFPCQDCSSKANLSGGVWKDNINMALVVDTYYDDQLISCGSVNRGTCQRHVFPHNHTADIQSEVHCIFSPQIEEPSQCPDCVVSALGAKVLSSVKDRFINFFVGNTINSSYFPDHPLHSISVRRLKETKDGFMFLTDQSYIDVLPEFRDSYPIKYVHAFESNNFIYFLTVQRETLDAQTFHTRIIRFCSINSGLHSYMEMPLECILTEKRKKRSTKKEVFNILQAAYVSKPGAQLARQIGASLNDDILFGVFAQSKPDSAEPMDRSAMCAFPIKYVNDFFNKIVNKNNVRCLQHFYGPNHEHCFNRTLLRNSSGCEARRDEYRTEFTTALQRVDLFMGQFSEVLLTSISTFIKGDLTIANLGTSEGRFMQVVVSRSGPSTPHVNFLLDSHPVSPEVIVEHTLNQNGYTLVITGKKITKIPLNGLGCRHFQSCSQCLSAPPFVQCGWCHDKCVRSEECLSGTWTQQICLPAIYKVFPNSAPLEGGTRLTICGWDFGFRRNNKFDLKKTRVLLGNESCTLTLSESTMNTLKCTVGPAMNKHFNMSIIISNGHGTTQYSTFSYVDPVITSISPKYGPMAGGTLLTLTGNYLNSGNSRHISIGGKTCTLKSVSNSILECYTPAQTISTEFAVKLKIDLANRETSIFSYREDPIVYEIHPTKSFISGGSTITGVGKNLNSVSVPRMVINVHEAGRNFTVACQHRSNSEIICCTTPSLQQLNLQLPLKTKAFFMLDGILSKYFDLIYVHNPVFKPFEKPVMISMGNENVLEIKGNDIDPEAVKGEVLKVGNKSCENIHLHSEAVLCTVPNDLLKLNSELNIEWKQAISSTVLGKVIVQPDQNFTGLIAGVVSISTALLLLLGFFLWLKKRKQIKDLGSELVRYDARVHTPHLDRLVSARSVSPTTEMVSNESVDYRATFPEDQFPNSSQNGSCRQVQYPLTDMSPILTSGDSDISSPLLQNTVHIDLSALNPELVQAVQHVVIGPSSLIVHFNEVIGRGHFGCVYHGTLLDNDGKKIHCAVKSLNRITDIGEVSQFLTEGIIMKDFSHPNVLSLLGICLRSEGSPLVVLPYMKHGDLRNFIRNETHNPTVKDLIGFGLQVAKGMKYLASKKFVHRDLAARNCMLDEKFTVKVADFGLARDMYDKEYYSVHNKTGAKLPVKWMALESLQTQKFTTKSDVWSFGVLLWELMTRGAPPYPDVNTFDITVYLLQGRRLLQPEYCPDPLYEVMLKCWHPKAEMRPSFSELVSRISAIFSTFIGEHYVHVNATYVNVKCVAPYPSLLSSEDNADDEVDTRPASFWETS
Chain of KDR (phospho-KDR, VEGF165-stimulated HUVEC cells) (P35968 20-1356): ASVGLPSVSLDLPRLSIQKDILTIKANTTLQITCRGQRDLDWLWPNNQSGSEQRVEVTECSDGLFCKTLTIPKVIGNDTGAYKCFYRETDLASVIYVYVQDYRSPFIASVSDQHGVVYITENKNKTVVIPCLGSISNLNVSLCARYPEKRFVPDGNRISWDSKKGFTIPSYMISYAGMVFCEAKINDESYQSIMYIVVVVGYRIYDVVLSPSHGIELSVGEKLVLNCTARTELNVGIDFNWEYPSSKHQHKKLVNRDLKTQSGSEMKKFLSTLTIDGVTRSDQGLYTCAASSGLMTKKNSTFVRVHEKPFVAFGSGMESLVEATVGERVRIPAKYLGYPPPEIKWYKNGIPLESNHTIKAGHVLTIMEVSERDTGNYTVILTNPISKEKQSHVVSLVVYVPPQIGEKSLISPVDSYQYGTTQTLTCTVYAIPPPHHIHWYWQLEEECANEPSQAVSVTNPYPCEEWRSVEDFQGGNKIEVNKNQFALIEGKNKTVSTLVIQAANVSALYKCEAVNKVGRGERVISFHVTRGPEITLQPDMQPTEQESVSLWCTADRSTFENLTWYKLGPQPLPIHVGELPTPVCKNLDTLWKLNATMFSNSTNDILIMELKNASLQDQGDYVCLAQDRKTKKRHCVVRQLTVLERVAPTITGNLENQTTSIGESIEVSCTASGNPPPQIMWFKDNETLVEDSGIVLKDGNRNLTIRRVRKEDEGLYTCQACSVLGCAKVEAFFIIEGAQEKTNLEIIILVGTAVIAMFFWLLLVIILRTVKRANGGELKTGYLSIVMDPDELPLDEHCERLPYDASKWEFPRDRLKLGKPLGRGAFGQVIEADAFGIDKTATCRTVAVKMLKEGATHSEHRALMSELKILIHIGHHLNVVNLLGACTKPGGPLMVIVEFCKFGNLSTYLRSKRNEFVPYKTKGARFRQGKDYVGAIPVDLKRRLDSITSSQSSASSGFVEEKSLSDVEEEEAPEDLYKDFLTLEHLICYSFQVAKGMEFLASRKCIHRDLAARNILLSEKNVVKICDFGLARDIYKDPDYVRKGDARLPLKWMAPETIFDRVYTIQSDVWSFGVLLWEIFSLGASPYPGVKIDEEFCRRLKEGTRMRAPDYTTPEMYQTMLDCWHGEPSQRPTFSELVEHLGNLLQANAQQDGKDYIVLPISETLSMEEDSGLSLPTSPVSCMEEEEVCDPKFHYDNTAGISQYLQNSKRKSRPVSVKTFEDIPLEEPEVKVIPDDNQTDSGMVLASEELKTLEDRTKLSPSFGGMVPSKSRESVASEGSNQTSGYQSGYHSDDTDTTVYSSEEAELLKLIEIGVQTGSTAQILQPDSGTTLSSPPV
Chain of Mer (phospho-Mer, MERTK-transfected 293A cells) (Q12866 21-999): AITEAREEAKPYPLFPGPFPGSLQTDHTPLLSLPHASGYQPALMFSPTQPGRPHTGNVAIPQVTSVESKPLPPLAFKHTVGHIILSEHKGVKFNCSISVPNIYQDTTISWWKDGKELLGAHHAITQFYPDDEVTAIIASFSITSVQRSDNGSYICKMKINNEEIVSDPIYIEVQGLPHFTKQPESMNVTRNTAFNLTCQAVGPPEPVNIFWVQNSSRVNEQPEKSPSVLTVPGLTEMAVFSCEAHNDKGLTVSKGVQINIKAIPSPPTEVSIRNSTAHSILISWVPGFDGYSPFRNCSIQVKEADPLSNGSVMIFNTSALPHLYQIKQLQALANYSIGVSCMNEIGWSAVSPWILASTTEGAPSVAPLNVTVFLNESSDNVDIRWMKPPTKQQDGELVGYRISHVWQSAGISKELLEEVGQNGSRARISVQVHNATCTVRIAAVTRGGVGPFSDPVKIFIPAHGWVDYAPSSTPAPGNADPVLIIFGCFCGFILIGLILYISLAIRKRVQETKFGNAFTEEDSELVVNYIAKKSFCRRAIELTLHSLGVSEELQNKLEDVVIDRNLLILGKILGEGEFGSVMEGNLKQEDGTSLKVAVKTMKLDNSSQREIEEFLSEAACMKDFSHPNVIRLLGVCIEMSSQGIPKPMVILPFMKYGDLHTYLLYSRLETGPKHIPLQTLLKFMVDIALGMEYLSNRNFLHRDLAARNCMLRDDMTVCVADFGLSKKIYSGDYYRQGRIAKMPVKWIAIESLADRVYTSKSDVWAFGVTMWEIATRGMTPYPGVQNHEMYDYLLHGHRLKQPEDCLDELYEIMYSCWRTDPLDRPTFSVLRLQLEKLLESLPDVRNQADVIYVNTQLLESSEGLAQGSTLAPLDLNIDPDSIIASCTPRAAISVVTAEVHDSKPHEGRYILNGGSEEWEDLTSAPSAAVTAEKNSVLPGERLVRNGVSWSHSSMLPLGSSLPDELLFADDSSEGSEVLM

What is called IC50 is the concentration that gives 50% inhibition. With `COc1cc2nccc(Oc3ccc(NC(=O)c4c(C)c(C(C)=O)c(C)n(-c5ccc(F)cc5)c4=O)cc3F)c2nc1OC` [Compound 321, 5-Acetyl-N-[4-[(6,7-dimethoxy-1,5-naphthyridin-4-yl)oxy]-3-fluorophenyl]-1-(4-fluorophenyl)-4,6-dimethyl-2-oxopyridine-3-carboxamide], the IC50 in test [1] was less than 100 nM; in test [2], less than 100 nM; in test [3], less than 100 nM; in test [4] it was 100 to 300 nM.

As to `COc1cc2nccc(Oc3ccc(NC(=O)c4c(C)c(C(C)=O)c(C)n(-c5ccc(F)cc5)c4=O)cc3)c2nc1OC` [Compound 322, 5-Acetyl-N-[4-[(6,7-dimethoxy-1,5-naphthyridin-4-yl)oxy]phenyl]-1-(4-fluorophenyl)-4,6-dimethyl-2-oxopyridine-3-carboxamide], the IC50 was less than 100 nM in test [1] (setting [5]), less than 100 nM in test [2], less than 100 nM in test [3] and 100 to 300 nM in test [4].

For `COc1cnc2c(Oc3ccc(NC(=O)c4c(C)c(C(C)=O)c(C)n(-c5ccc(F)cc5)c4=O)cc3F)ccnc2c1` [Compound 323, 5-Acetyl-N-[3-fluoro-4-[(7-methoxy-1,5-naphthyridin-4-yl)oxy]phenyl]-1-(4-fluorophenyl)-4,6-dimethyl-2-oxopyridine-3-carboxamide], the IC50 in test [1] (setting [5]) was less than 100 nM; in test [2], less than 100 nM; in test [3], less than 100 nM; in test [4] it was 100 to 300 nM.

For the compound `COc1cc2nccc(Oc3ccc(NC(=O)c4c(C)c(F)c(C)n(-c5ccc(F)cc5)c4=O)cc3F)c2nc1OC` [Compound 324, N-[4-[(6,7-Dimethoxy-1,5-naphthyridin-4-yl)oxy]-3-fluorophenyl]-5-fluoro-1-(4-fluorophenyl)-4,6-dimethyl-2-oxopyridine-3-carboxamide], the IC50 in test [1] (setting [5]), in test [2], in test [3] and in test [4] was less than 100 nM in each case.

For the compound `COc1cc2nccc(Oc3ccc(NC(=O)c4c(C)c(F)c(C)n(-c5ccc(F)cc5)c4=O)cc3)c2nc1OC` [Compound 325, N-[4-[(6,7-Dimethoxy-1,5-naphthyridin-4-yl)oxy]phenyl]-5-fluoro-1-(4-fluorophenyl)-4,6-dimethyl-2-oxopyridine-3-carboxamide], the IC50 in test [1] (setting [5]), in test [2], in test [3] and in test [4] was less than 100 nM in each case.

Consider `COc1cnc2c(Oc3ccc(NC(=O)c4c(C)c(F)c(C)n(-c5ccc(F)cc5)c4=O)cc3F)ccnc2c1` [Compound 326, 5-Fluoro-N-[3-fluoro-4-[(7-methoxy-1,5-naphthyridin-4-yl)oxy]phenyl]-1-(4-fluorophenyl)-4,6-dimethyl-2-oxopyridine-3-carboxamide], for which the IC50 in test [1] (setting [5]) is less than 100 nM; in test [2], less than 100 nM; in test [3], less than 100 nM; in test [4], 100 to 300 nM.

For the compound `C=Cc1c(C)c(C(=O)Nc2ccc(Oc3ccnc4cc(OC)c(OC)nc34)c(F)c2)c(=O)n(-c2ccc(F)cc2)c1C` [Compound 327, N-[4-[(6,7-Dimethoxy-1,5-naphthyridin-4-yl)oxy]-3-fluorophenyl]-5-ethenyl-1-(4-fluorophenyl)-4,6-dimethyl-2-oxopyridine-3-carboxamide], the IC50 in test [1] (setting [5]), in test [2], in test [3] and in test [4] was less than 100 nM each time.

For `C=Cc1c(C)c(C(=O)Nc2ccc(Oc3ccnc4cc(OC)c(OC)nc34)cc2)c(=O)n(-c2ccc(F)cc2)c1C` [Compound 328, N-[4-[(6,7-Dimethoxy-1,5-naphthyridin-4-yl)oxy]phenyl]-5-ethenyl-1-(4-fluorophenyl)-4,6-dimethyl-2-oxopyridine-3-carboxamide], the IC50 in test [1] (setting [5]) is less than 100 nM; in test [2], less than 100 nM; in test [3], less than 100 nM; in test [4], greater than 300 nM.

`C=Cc1c(C)c(C(=O)Nc2ccc(Oc3ccnc4cc(OC)cnc34)c(F)c2)c(=O)n(-c2ccc(F)cc2)c1C` [Compound 329, 5-ethenyl-N-[3-fluoro-4-[(7-methoxy-1,5-naphthyridin-4-yl)oxy]phenyl]-1-(4-fluorophenyl)-4,6-dimethyl-2-oxopyridine-3-carboxamide]: the IC50 in test [1] (setting [5]) is less than 100 nM; in test [2] it was less than 100 nM; in test [3], less than 100 nM; in test [4] it was 100 to 300 nM.

As for `CCc1c(C)c(C(=O)Nc2ccc(Oc3ccnc4cc(OC)c(OC)nc34)c(F)c2)c(=O)n(-c2ccc(F)cc2)c1C` [Compound 330, N-[4-[(6,7-dimethoxy-1,5-naphthyridin-4-yl)oxy]-3-fluorophenyl]-5-ethyl-1-(4-fluorophenyl)-4,6-dimethyl-2-oxopyridine-3-carboxamide], the IC50 in test [1] (setting [5]) was less than 100 nM; in test [2], less than 100 nM; in test [3] it was less than 100 nM; in test [4], greater than 300 nM.

`CCc1c(C)c(C(=O)Nc2ccc(Oc3ccnc4cc(OC)c(OC)nc34)cc2)c(=O)n(-c2ccc(F)cc2)c1C` [Compound 331, N-[4-[(6,7-dimethoxy-1,5-naphthyridin-4-yl)oxy]phenyl]-5-ethyl-1-(4-fluorophenyl)-4,6-dimethyl-2-oxopyridine-3-carboxamide]: the 50% inhibitory concentration (IC50) in test [1] (setting [5]) was less than 100 nM; in test [2], less than 100 nM; in test [3], less than 100 nM; in test [4], greater than 300 nM.

Take `COc1cc2nccc(Oc3ccc(NC(=O)c4c(C)ccn(-c5ccc(F)cc5C)c4=O)cc3)c2nc1OC` [Compound 332, N-[4-[(6,7-dimethoxy-1,5-naphthyridin-4-yl)oxy]phenyl]-1-(4-fluoro-2-methylphenyl)-4-methyl-2-oxopyridine-3-carboxamide]: the IC50 in test [1] (setting [5]), in test [2], in test [3] and in test [4] was less than 100 nM each time.

On to `CCOc1c(C(=O)Nc2ccc(Oc3ccnc4cc(OC)c(OC)nc34)c(F)c2)cnc(C)c1-c1ccc(F)cc1` [Compound 333, N-[4-[(6,7-dimethoxy-1,5-naphthyridin-4-yl)oxy]-3-fluorophenyl]-4-ethoxy-5-(4-fluorophenyl)-6-methylpyridine-3-carboxamide], for which the IC50 was less than 100 nM in test [1] (setting [5]), less than 100 nM in test [2], less than 100 nM in test [3] and 100 to 300 nM in test [4].

`COc1cnc2c(Oc3ccc(NC(=O)c4c(C)ccn(-c5ccc(F)cc5C)c4=O)cc3F)ccnc2c1` [Compound 334, N-[3-fluoro-4-[(7-methoxy-1,5-naphthyridin-4-yl)oxy]phenyl]-1-(4-fluoro-2-methylphenyl)-4-methyl-2-oxopyridine-3-carboxamide]: the IC50 was 100 to 300 nM in test [1] (setting [5]), less than 100 nM in test [2], less than 100 nM in test [3] and less than 100 nM in test [4].

Regarding `CCc1c(C)c(C(=O)Nc2ccc(Oc3ccnc4cc(OC)cnc34)c(F)c2)c(=O)n(-c2ccc(F)cc2)c1C` [Compound 335, 5-ethyl-N-[3-fluoro-4-[(7-methoxy-1,5-naphthyridin-4-yl)oxy]phenyl]-1-(4-fluorophenyl)-4,6-dimethyl-2-oxopyridine-3-carboxamide], the IC50 was less than 100 nM in test [1] (setting [5]), less than 100 nM in test [2], less than 100 nM in test [3] and greater than 300 nM in test [4].

Regarding `COCc1ccc(C(=O)Nc2ccc(Oc3ccnc4cc(OC)c(OC)nc34)c(F)c2)c(=O)n1-c1ccc(F)cc1` [Compound 358, N-[4-[(6,7-dimethoxy-1,5-naphthyridin-4-yl)oxy]-3-fluorophenyl]-1-(4-fluorophenyl)-6-(methoxymethyl)-2-oxopyridine-3-carboxamide], the IC50 in test [1] (setting [5]), in test [2], in test [3] and in test [4] was less than 100 nM each time.

As to `COc1cc2nccc(Oc3ccc(NC(=O)c4cc(C(C)=O)cn(-c5ccc(F)cc5)c4=O)cc3)c2nc1OC` [Compound 359, 5-acetyl-N-[4-[(6,7-dimethoxy-1,5-naphthyridin-4-yl)oxy]phenyl]-1-(4-fluorophenyl)-2-oxopyridine-3-carboxamide], the IC50 in test [1] (setting [5]) is less than 100 nM; in test [2] it was less than 100 nM; in test [3], less than 100 nM; in test [4], greater than 300 nM.

As for `COc1cc2nccc(Oc3ccc(NC(=O)c4c5c(cn(-c6ccc(F)cc6)c4=O)C(=O)CCC5)cc3)c2nc1OC` [Compound 360, N-[4-[(6,7-dimethoxy-1,5-naphthyridin-4-yl)oxy]phenyl]-2-(4-fluorophenyl)-3,8-dioxo-6,7-dihydro-5H-isoquinoline-4-carboxamide], the IC50 in test [1] (setting [5]) is less than 100 nM; in test [2] it was less than 100 nM; in test [3] it was 100 to 300 nM; in test [4], greater than 300 nM.
